According to US6569449B1, “Transdermal delivery of opioid antagonist prodrugs” (University of Kentucky Research Foundation, priority 2000, dated 2003):
Converted amounts (≈) assume the structure as drawn. Where two headings read alike, the source gives them in different places.

What was measured:
[1] = Solubilities in light mineral oil and pH 7.4 isotonic phosphate buffer; type: physicochemical; details: thermodynamic from solid, 32° C., 48 hours equilibration
Description: The solubilities of naltrexone and its esters were obtained by equilibrating large excesses of each substance with the respective vehicle, light mineral oil, or pH 7.4 isotonic phosphate buffer at 32° C. To hasten the attainment of equilibrium, each slurry was continuously shaken in a sealed container in a shaking incubation oven. Samples were taken, filtered (mineral oil:Millex FG-13, Millipore and buffer:glass microfiber, Gelman) above 32° C., measured with respect to volume, and diluted with the appropriate amount of acetonitrile. The diluted samples were analyzed by HPLC. The initial forty percent of each filtrate was discarded to eliminate the possibility that adsorption of drug on the filter and/or the filtering apparatus might influence the solubility determination. The sampling procedure was repeated at least once for each sample. […] Therefore, the equilibration times for all the studies were 48 hours.

[2] = Octanol/water partition coefficients; type: physicochemical; details: octanol/pH 7.4 isotonic phosphate buffer, room temperature; read-out: Experimental log P
Description: The octanol/water partition coefficients were determined using pH 7.4 isotonic phosphate buffer as the aqueous phase. All steps were carried out at room temperature. An appropriate amount of drug was weighed into a vial and dissolved in a known amount of octanol. An equivalent amount of buffer was then added to the vial and the phases shaken for 24 hours. The vials were left undisturbed for at least one hour after shaking. An exact volume was taken from the aqueous phase, diluted with acetonitrile, and then analyzed by HPLC. The final pH of the aqueous phase at the end of the shaking period was 7.95. Similarly, an exact volume was taken from the octanol phase, diluted with acetonitrile, and then analyzed by HPLC. Partition coefficients were calculated by determining the phase concentration ratios.

O=C1CC[C@@]2(O)[C@H]3Cc4ccc(O)c5c4[C@@]2(CCN3CC2CC2)[C@H]1O5 [NTX, Naltrexone]
solubility at 48 h ([1]; aqueous buffer, pH 7.4 isotonic phosphate buffer, read-out: Phosphate Buffer Solubility pH 7.4 32° C.): 15.2 mM (≈ 5190 µg/mL) | solubility at 48 h ([1]; oil or lipid, light mineral oil, read-out: Light Mineral Oil Solubility 32° C.): 0.258 mM (≈ 88.1 µg/mL) | logP at 24 h [2]: 0.67
